Test results published in patent US9284306B2, “(R)-Nifuratel, its use for the treatment of infections and synthesis of (R) and (S)-Nifuratel” (POLICHEM SA, priority 2012, dated 2016).
Converted amounts (≈) assume the structure as drawn. Where two headings read alike, the source gives them in different places.

What was measured:
in vivo [1] = conditions: male, rat, iv, 2 mg/kg
in vivo [2] = conditions: male, rat, po, 15 mg/kg
Atopobium vaginae = experiment: MIC, agar dilution; type: cell-based; conditions: Fannyhessea vaginae
Protocol: (§1) Micrococcus pyogenes (ATCC 11631), Bacillus subtilis (ATCC 11774), Lactobacillus iners (ATCC 55195), Escherichia coli (ATCC 11775), Proteus mirabilis (ATCC 14153), Klebsiella pneumoniae (ATCC 10031), Shigella sonnei (ATCC 11060), Neisseria gonorrhoeae (ATCC 19424), Salmonella typhimurium (ATCC 14028) Salmonella paratyphi B (ATCC 10719), Helicobacter pylori (ATCC 43504) and several strains of Atopobium vaginae and Gardnerella vaginalis.
(§2) Strains were prepared from freeze-dried pellets. An isolation of the suspensions (to test the strains purity) and a strains massive growth were made by streaking microbial suspensions on agar media. The bacterial colonies on agar plates were collected with 3-5 mL of specific liquid medium+15% glycerol and then the aliquots were frozen at −80° C.
(§3) Compounds Minimal Inhibitory Concentration (MIC) was determined through broth micro-dilution susceptibility testing with a method developed following the National Committee for Clinical Laboratory Standards (CLSI) M07-A8 and M11-A7 references. Assays were carried out in specific media (Table 3). The tests were performed either following the broth microdilution assay or the agar dilution assay. Compounds stock solutions were made at 12.8 mg/mL in DMSO 100%. A series of twofold dilutions were then prepared using the strain specific broth. Final concentrations were from 0.125 μg/mL to 64 μg/mL at 1% DMSO. MIC is defined as the lowest concentration of antibacterial agent which prevent any visible growth.

Gardnerella vaginalis = experiment: MIC, agar dilution; type: cell-based
Protocol: as §1, §2, §3

[3] = tested on: Staphylococcus aureus (MRSA); experiment: MIC, broth microdilution; type: cell-based
Protocol: as §2, §3

[4] = tested on: Neisseria gonorrhoeae ATCC 19424; experiment: MIC, broth microdilution; type: cell-based; conditions: ATCC19424; broth microdilution; Neisseria gonorrhoeae ATCC 19424; read-out: MIC
Protocol: as §1, §2, §3

[5] = tested on: Salmonella paratyphi B ATCC 10719; experiment: MIC, broth microdilution; type: cell-based; conditions: Salmonella enterica
Protocol: as §1, §2, §3

Bacillus subtilis = experiment: MIC, broth microdilution; type: cell-based; conditions: broth microdilution, read-out: MIC
Protocol: as §1, §2, §3

[6] = tested on: Micrococcus pyogenes ATCC 11631; experiment: MIC, broth microdilution; type: cell-based; conditions: Staphylococcus aureus, ATCC11631; broth microdilution; Micrococcus pyogenes ATCC 11631; read-out: MIC
Protocol: as §1, §2, §3

[7] = tested on: Shigella sonnei ATCC 11060; experiment: MIC, broth microdilution; type: cell-based; conditions: ATCC11060
Protocol: as §1, §2, §3

[8] = tested on: Escherichia coli ATCC 11775; experiment: MIC, broth microdilution; type: cell-based; conditions: ATCC11775; broth microdilution; Escherichia coli ATCC 11775; read-out: MIC
Protocol: as §1, §2, §3

[9] = tested on: Helicobacter pylori ATCC 43504; experiment: MIC, broth microdilution; type: cell-based; conditions: ATCC43504
Protocol: as §1, §2, §3

[10] = tested on: Klebsiella pneumonia ATCC 10031; experiment: MIC, broth microdilution; type: cell-based; conditions: Klebsiella pneumoniae, ATCC10031; broth microdilution; Klebsiella pneumonia ATCC 10031; read-out: MIC
Protocol: as §1, §2, §3

[11] = tested on: Proteus mirabilis ATCC 14153; experiment: MIC, broth microdilution; type: cell-based; conditions: ATCC14153; broth microdilution; Proteus mirabilis ATCC 14153; read-out: MIC
Protocol: as §1, §2, §3

[12] = tested on: Salmonella typhimurium ATCC 14028; experiment: MIC, broth microdilution; type: cell-based; conditions: Salmonella enterica; broth microdilution; Salmonella typhimurium ATCC 14028; read-out: MIC
Protocol: as §1, §2, §3

[13] = tested on: Lactobacillus iners ATCC 55195; experiment: MIC, broth microdilution; type: cell-based; conditions: ATCC55195; broth microdilution; Lactobacillus iners ATCC 55195; read-out: MIC
Protocol: as §1, §2, §3

[14] = tested on: Gram positive and negative organisms; experiment: Antimicrobial activity (MIC), overall comparison; type: cell-based; conditions: Tables 3 and 4, overall
Text: as §1, §3

[15] = rat, in vivo
Protocol: The pharmacokinetic profile of S- and R-nifuratel was assessed after intravenous administration (2 mg/kg) and oral gavage (15 mg/kg) in male rats.

[16] = CCUG38953, agar dilution, Atopobium vaginae CCUG 38953, read-out: MIC
[17] = CCUG42099, agar dilution, Atopobium vaginae CCUG 42099, read-out: MIC
[18] = CCUG43049, agar dilution, Atopobium vaginae CCUG 43049, read-out: MIC
[19] = CCUG44156, agar dilution, Atopobium vaginae CCUG 44156, read-out: MIC
[20] = CCUG48515, agar dilution, Atopobium vaginae CCUG 48515, read-out: MIC
[21] = CCUG55226, agar dilution, Atopobium vaginae CCUG 55226, read-out: MIC
[22] = CCUG55227, agar dilution, Atopobium vaginae CCUG 55227, read-out: MIC
[23] = ATCC14018, agar dilution, Gardnerella vaginalis ATCC 14018, read-out: MIC
[24] = agar dilution, Gardnerella vaginalis C2, read-out: MIC
[25] = agar dilution, Gardnerella vaginalis D2, read-out: MIC
[26] = agar dilution, Gardnerella vaginalis E2, read-out: MIC
[27] = agar dilution, Gardnerella vaginalis G2, read-out: MIC
[28] = agar dilution, Gardnerella vaginalis H2, read-out: MIC
[29] = agar dilution, Gardnerella vaginalis J2, read-out: MIC
[30] = agar dilution, Gardnerella vaginalis K2, read-out: MIC

## CSC[C@@H]1CN(/N=C/c2ccc([N+](=O)[O-])o2)C(=O)O1 [S-Nifuratel, (S)-Nifuratel]
In vivo [1]
  AUC(0-inf): 0.167 µg·h/mL
  AUC(0-t): 0.166 µg·h/mL
  Clast: 0.005 µg/mL
  Cmax: 1.15 µg/mL
  MRT: 4 min
  Tlast: 53 min
  Tmax: 2 min
  VSR: 0.9 L/kg
  clearance: 12.2 L/h/kg
  half-life: 8 min
In vivo [2]
  AUC(0-t): 0.0326 µg·h/mL
  Clast: 0.003 µg/mL
  Cmax: 0.006 µg/mL
  Tlast: 480 min
  Tmax: 5 min
Atopobium vaginae; [16]
  MIC: 0.25 mg/L (≈ 0.876 µM)
Atopobium vaginae; CCUG39382, agar dilution, Atopobium vaginae CCUG 39382, read-out: MIC
  MIC: 0.25 mg/L (≈ 0.876 µM)
Atopobium vaginae; [17]
  MIC: 0.5 mg/L (≈ 1.75 µM)
Atopobium vaginae; [18]
  MIC: 0.5 mg/L (≈ 1.75 µM)
Atopobium vaginae; CCUG44061
  MIC: 0.125 mg/L (≈ 0.438 µM)
Atopobium vaginae; [19]
  MIC: 0.25 mg/L (≈ 0.876 µM)
Atopobium vaginae; [20]
  MIC: 1 mg/L (≈ 3.51 µM)
Atopobium vaginae; [21]
  MIC: 1 mg/L (≈ 3.51 µM)
Atopobium vaginae; [22]
  MIC: 0.5 mg/L (≈ 1.75 µM)
Gardnerella vaginalis; [23]
  MIC: 2 mg/L (≈ 7.01 µM)
Gardnerella vaginalis; [24]
  MIC: 8 mg/L (≈ 28 µM)
Gardnerella vaginalis; [25]
  MIC: 2 mg/L (≈ 7.01 µM)
Gardnerella vaginalis; [26]
  MIC: 2 mg/L (≈ 7.01 µM)
Gardnerella vaginalis; [27]
  MIC: 1 mg/L (≈ 3.51 µM)
Gardnerella vaginalis; [28]
  MIC: 2 mg/L (≈ 7.01 µM)
Gardnerella vaginalis; [29]
  MIC: 4 mg/L (≈ 14 µM)
Gardnerella vaginalis; [30]
  MIC: 4 mg/L (≈ 14 µM)
[3]
  MIC: 4 mg/L (≈ 14 µM)
[4]
  MIC: 0.5 mg/L (≈ 1.75 µM)
[5]
  MIC: 4 mg/L (≈ 14 µM)
Bacillus subtilis
  MIC: 1 mg/L (≈ 3.51 µM)
[6]
  MIC: 1 mg/L (≈ 3.51 µM)
[7]
  MIC: 4 mg/L (≈ 14 µM)
[8]
  MIC: 2 mg/L (≈ 7.01 µM)
[9]; broth microdilution, Helicobacter pylori ATCC 43504, read-out: MIC
  MIC: 0.25 mg/L (≈ 0.876 µM)
[10]
  MIC: 4 mg/L (≈ 14 µM)
[11]
  MIC: 8 mg/L (≈ 28 µM)
[12]
  MIC: 8 mg/L (≈ 28 µM)
[13]
  MIC: 32 mg/L (≈ 112 µM)

## CSC[C@H]1CN(/N=C/c2ccc([N+](=O)[O-])o2)C(=O)O1 [R-nifuratel, (R)-Nifuratel]
In vivo [1]
  AUC(0-inf): 0.75 µg·h/mL
  AUC(0-t): 0.74 µg·h/mL
  Clast: 0.043 µg/mL
  Cmax: 4.19 µg/mL
  MRT: 7 min
  Tlast: 75 min
  Tmax: 2 min
  VSR: 0.4 L/kg
  clearance: 2.94 L/h/kg
  half-life: 11 min
In vivo [2]
  AUC(0-t): 0.0668 µg·h/mL
  Clast: 0.003 µg/mL
  Cmax: 0.034 µg/mL
  MRT: 82.4 h
  Tlast: 480 min
  Tmax: 5 min
  half-life: 236 min
Atopobium vaginae; [16]
  MIC: 0.25 mg/L (≈ 0.876 µM)
Atopobium vaginae; CCUG39382
  MIC: 0.125 mg/L (≈ 0.438 µM)
Atopobium vaginae; [17]
  MIC: 0.25 mg/L (≈ 0.876 µM)
Atopobium vaginae; [18]
  MIC: 0.25 mg/L (≈ 0.876 µM)
Atopobium vaginae; CCUG44061, agar dilution, Atopobium vaginae CCUG 44061, read-out: MIC
  MIC: 0.25 mg/L (≈ 0.876 µM)
Atopobium vaginae; [19]
  MIC: 0.25 mg/L (≈ 0.876 µM)
Atopobium vaginae; [20]
  MIC: 0.5 mg/L (≈ 1.75 µM)
Atopobium vaginae; [21]
  MIC: 1 mg/L (≈ 3.51 µM)
Atopobium vaginae; [22]
  MIC: 0.25 mg/L (≈ 0.876 µM)
Gardnerella vaginalis; [23]
  MIC: 1 mg/L (≈ 3.51 µM)
Gardnerella vaginalis; [24]
  MIC: 4 mg/L (≈ 14 µM)
Gardnerella vaginalis; [25]
  MIC: 4 mg/L (≈ 14 µM)
Gardnerella vaginalis; [26]
  MIC: 1 mg/L (≈ 3.51 µM)
Gardnerella vaginalis; [27]
  MIC: 2 mg/L (≈ 7.01 µM)
Gardnerella vaginalis; [28]
  MIC: 1 mg/L (≈ 3.51 µM)
Gardnerella vaginalis; [29]
  MIC: 2 mg/L (≈ 7.01 µM)
Gardnerella vaginalis; [30]
  MIC: 4 mg/L (≈ 14 µM)
[3]
  MIC: 2 mg/L (≈ 7.01 µM)
[4]
  MIC: 0.25 mg/L (≈ 0.876 µM)
[5]
  MIC: 1 mg/L (≈ 3.51 µM)
Bacillus subtilis
  MIC: 0.25 mg/L (≈ 0.876 µM)
[6]
  MIC: 2 mg/L (≈ 7.01 µM)
[7]
  MIC: 1 mg/L (≈ 3.51 µM)
[8]
  MIC: 1 mg/L (≈ 3.51 µM)
[9]; Helicobacter pylori
  MIC: 0.125 mg/L (≈ 0.438 µM)
[10]
  MIC: 2 mg/L (≈ 7.01 µM)
[11]
  MIC: 8 mg/L (≈ 28 µM)
[12]
  MIC: 2 mg/L (≈ 7.01 µM)
[13]
  MIC: 16 mg/L (≈ 56.1 µM)
[14]
  antimicrobial profile compared to nifuratel racemate or (S)-nifuratel: better antimicrobial profile
[15]
  overall pharmacokinetic profile: best pharmacokinetic profile
